Measured values reported in PubChem BioAssay (NCI).
Where “and” joins values, the source holds several entries; their conditions need not be identical. Identical values can stand only once.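 All cell lines were grown in 96-well plates and treated with compound for 48 hours. The concentration for 50% growth inhibition is given as GI50. The concentration for full growth arrest is given as TGI.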

Columns and labels:
Experiment in all cases: NCI-60 cell line screen, 48 h
CAKI-1 renal = test system: CAKI-1 renal
SF-268 CNS = test system: SF-268 CNS
CCRF-CEM leukemia = test system: CCRF-CEM leukemia
HCC-2998 colon = test system: HCC-2998 colon
SNB-19 CNS = test system: SNB-19 CNS
HL-60(TB) leukemia = test system: HL-60(TB) leukemia
UACC-257 melanoma = test system: UACC-257 melanoma
NCI-H226 lung = test system: NCI-H226 lung
NCI-H460 lung = test system: NCI-H460 lung
SK-MEL-2 melanoma = test system: SK-MEL-2 melanoma

Row | Compound | TGI (CAKI-1 renal) [µM] | TGI (SF-268 CNS) | TGI (CCRF-CEM leukemia) | TGI (HCC-2998 colon) | TGI (SNB-19 CNS) [µM] | TGI (HL-60(TB) leukemia) [µM] | TGI (UACC-257 melanoma) | GI50 (CAKI-1 renal) [µM] | GI50 (SF-268 CNS) [µM] | GI50 (CCRF-CEM leukemia) [µM] | GI50 (NCI-H226 lung) [µM] | TGI (NCI-H226 lung) | GI50 (HCC-2998 colon) [µM] | GI50 (SNB-19 CNS) [µM] | GI50 (HL-60(TB) leukemia) [nM] | GI50 (UACC-257 melanoma) [µM] | GI50 (NCI-H460 lung) [µM] | TGI (NCI-H460 lung) | GI50 (SK-MEL-2 melanoma) [µM] | TGI (SK-MEL-2 melanoma)
1 | CN1C(=O)c2cccc3cc([N+](=O)[O-])cc(c23)C1=O | > 10 | > 10 µM | > 10 µM | > 10 µM | > 10 | > 10 | > 10 µM |  |  |  |  |  |  |  |  |  |  |  |  | 
2 | CC(=O)[O-].CCN(CC)c1ccc(C=NCCN=Cc2ccc(N(CC)CC)cc2[O-])c([O-])c1.[Mn+3] | > 100 | 52.7 µM | > 100 µM | 35.9 µM | 42.8 | 38.3 | 55.5 µM | > 100 | 23.8 | 42 | 64.4 | > 100 µM | 19.7 | 19.9 | 17600 | 23 | 21.3 | 43.5 µM |  | 
3 | O=C1OC(C(O)CO)C(=O)C1=O (stereo not drawn) | 9630 | 6600 µM | > 10000 µM | > 10000 µM | > 10000 |  | > 10000 µM | 3220 | 2720 | 2940 | > 10000 | > 10000 µM | > 10000 | 8280 |  | > 10000 | 3540 | > 10000 µM | > 10000 | > 10000 µM
4 | Cc1cccc(N2CCN(C(=S)c3ccc4c(c3)OCO4)CC2)c1 | > 100 | > 100 µM | > 100 µM | > 100 µM | > 100 | 19 | > 100 µM | 0.485 | 3.85 | 6.91 | 41 | > 100 µM | 3.76 | 1.64 | 659 | > 100 | 0.472 | 37.5 µM |  | 
5 | COC1(OC)C2(Cl)C(Cl)=C(Cl)C1(Cl)C1C=CC=CC12 (stereo not drawn) | > 100 | > 100 µM |  | > 100 µM | > 100 | > 100 | > 100 µM |  |  |  |  | > 100 µM |  |  |  |  |  | > 100 µM |  | 63 µM
6 | Cc1cccc(NC(=O)/C(=N\NC(C)(C)C)C2NC(=S)NC2=O)c1C (stereo not drawn) | > 100 |  | > 100 µM | > 100 µM | > 100 | > 100 | > 100 µM |  |  |  |  |  |  |  |  |  |  | > 100 µM |  | > 100 µM
7 | Cn1c(=O)c(C(c2ccc([N+](=O)[O-])cc2)c2c(O)c3ccccc3n(C)c2=O)cc2ccccc21 (stereo not drawn) | > 100 | > 100 µM |  | > 100 µM | > 100 | > 100 | 45.3 µM |  |  |  |  | 64 µM |  |  |  |  |  | > 100 µM |  | > 100 µM
8 | COC(=O)/C(=N\Nc1nnc(C)n1N)C(C#N)c1ccc(Cl)cc1 (stereo not drawn) | > 100 | > 100 µM |  | > 100 µM | > 100 |  | > 100 µM |  |  |  |  | > 100 µM |  |  |  |  |  | > 100 µM |  | > 100 µM
9 | COc1cc(C(C)O)c[n+](CCc2c[nH]c3ccccc23)c1 (stereo not drawn) | > 100 | > 100 µM | > 100 µM | > 100 µM | > 100 | > 100 | > 100 µM |  |  |  |  |  |  |  |  |  |  | > 100 µM |  | > 100 µM
10 | Cc1ccn2c(c1)nc1nc3ccccc3nc12 | > 100 | > 100 µM | > 100 µM |  | > 100 | > 100 | > 100 µM |  |  |  |  | > 100 µM |  |  |  |  |  | > 100 µM |  | > 100 µM
11 | C[C@@]12CC=C3c4nc(Nc5cccc(O)c5)sc4CC[C@]3(C)[C@H]1CC[C@]1(C)C(=O)CC[C@@H]21 | 3.28 | 7.12 µM | > 100 µM |  | 55.7 | 6.48 | > 100 µM | 1.7 | 2.1 | 1.83 | 2.86 | 8.94 µM |  | 3.88 | 2350 | 3.69 | 2.66 | 7.25 µM | 2.86 | 9.99 µM
12 | O=C1CCN2C(=O)CCN12 | > 100 | > 100 µM | > 100 µM |  | > 100 | > 100 | > 100 µM |  |  |  |  | > 100 µM |  |  |  |  |  | > 100 µM |  | > 100 µM
13 | O=C1C2C3C=C4c5ccccc5N(c5ccccc5)C4(C2C(=O)N1Cc1ccccc1)C1C(=O)N(Cc2ccccc2)C(=O)C31 (stereo not drawn) |  | > 100 µM | > 100 µM | > 100 µM | > 100 | > 100 | > 100 µM |  |  |  |  |  |  |  |  |  |  | > 100 µM |  | > 100 µM
14 | Clc1nc(Cl)c(Cl)c(-c2ccccc2)n1 |  | 61.6 µM |  | 78 µM | 33.3 | > 100 | 44.2 µM |  |  |  |  | 65.4 µM |  |  |  |  |  | > 100 µM |  | 51.7 µM
15 | COc1cc(/C=C/c2cc(/C=C/c3ccc(O)c(OC)c3)n(C(=O)Nc3ccc(F)c(Cl)c3)n2)ccc1O | 4.92 |  | > 100 µM | 3.71 µM | 2.1 | 0.88 | 5.32 µM | 0.35 |  | 0.131 | 0.491 | 2.3 µM | 0.639 | 0.514 | 310 | 1.18 |  |  |  | 
16 | COc1cccc2c1C(=O)c1c(O)c3c(c(O)c1C2=O)C[C@@](O)(C(C)=O)C[C@@H]3OC1OC(C)C(O)C(N)C1Br (stereo partly drawn) | 0.257 | 3.63 µM and 1.21 µM | 0.07 µM and 0.108 µM | 0.327 µM and 0.489 µM |  |  | 0.487 µM and 1.14 µM |  | 0.0365 |  | 0.0134 | 0.0714 µM and 0.0818 µM | 0.168 | 0.025 |  | 0.123 |  | 0.115 µM and 0.118 µM | 0.198 | 0.715 µM and 0.704 µM
17 | Cc1cc(C(=O)Nc2ncc(Cc3cccc(C(F)(F)F)c3)s2)c2ccccc2n1 | > 100 | > 100 µM | > 100 µM | > 100 µM | > 100 | 5.38 | > 100 µM | 2.13 | 2.63 | 2.54 |  |  | 1.11 | 3.02 | 2210 | 1.75 | 1.33 | > 100 µM | 2.74 | > 100 µM
18 | CS/C(N)=N\NC(=O)CCC(=O)Nc1ccccc1C(F)(F)F | > 100 | > 100 µM | > 100 µM | > 100 µM | > 100 |  | > 100 µM |  |  |  |  | > 100 µM |  |  |  |  |  | > 100 µM |  | > 100 µM
19 | Cc1cc(S(=O)(=O)Nc2nnc(-c3ccccc3)c(-c3ccccc3)n2)c(SCC(N)=O)cc1Cl | > 100 | > 100 µM | 77.4 µM |  | > 100 | > 100 | 97.6 µM | > 100 | 37.6 | 29.3 | 59.9 | > 100 µM |  | 35.3 | 53300 | 33.1 | 36.9 | > 100 µM | 30.5 | 49.2 µM
20 | c1ccc(CNn2nnc3ccccc32)cc1 | > 100 | > 100 µM | > 100 µM | > 100 µM | > 100 | > 100 | > 100 µM |  |  |  |  |  |  |  |  |  |  | > 100 µM |  | > 100 µM
21 | CC(C)(C)c1cc(Br)c(O)c(CN(Cc2cc(C(C)(C)C)cc(Br)c2O)C2CCCCC2)c1 | 24.7 | 26.4 µM | 26.6 µM |  | 27.1 | 35.8 | 16.5 µM |  |  |  |  | 29.1 µM |  |  |  |  |  |  |  | 25.8 µM
22 | COC(C(O)CO)C(O)C(O)C(=O)NNc1ccccc1 (stereo not drawn) | > 100 | > 100 µM | > 100 µM | > 100 µM | > 100 | > 100 | > 100 µM |  |  |  |  |  |  |  |  |  |  | > 100 µM |  | > 100 µM
23 | Oc1cccnc1CN1CCCCC1 | > 100 | > 100 µM |  | > 100 µM | > 100 |  | > 100 µM |  |  |  |  | > 100 µM |  |  |  |  |  | > 100 µM |  | > 100 µM
24 | Clc1ccc(C2=Nn3c(COc4ccccc4Cl)nnc3SC2)c(Cl)c1 | 76.7 | > 100 µM | > 100 µM |  | > 100 | 75.4 | 60.9 µM | 25.9 | 31.8 | 30.6 | 14.6 | 41.6 µM |  | 30.4 | 19400 | 20.8 | 24.2 | > 100 µM | 25.1 | 57.4 µM
25 | COc1ccccc1CCc1cc(OC)c(OC)c(OC)c1 | > 100 | > 100 µM | > 100 µM |  | > 100 | 39.3 | > 100 µM |  |  |  |  | > 100 µM |  |  |  |  |  | > 100 µM |  | 
26 | Cc1cc(Cl)ccc1N=C1NC(=O)C(CC(=O)Nc2ccc([N+](=O)[O-])cc2[N+](=O)[O-])S1 (stereo not drawn) | 54.3 | > 100 µM | > 100 µM | > 100 µM | 73.2 |  | 90.3 µM |  |  |  |  |  |  |  |  |  |  | 84.9 µM |  | 46.1 µM
27 | COC1=C(C)C(=O)c2c(c(COC(N)=O)c3n2CC2C3N2C)C1=O (stereo not drawn) | 0.059 | 0.6 µM | 0.105 µM |  | 0.256 | 0.17 | 0.0641 µM |  |  |  |  | 0.337 µM |  |  |  |  |  |  |  | 0.109 µM
28 | CCOC(=O)c1c(C)n(Cc2ccc(Cl)cc2Cl)c2c1c(CN(C)C)c(O)c1[nH]cnc12 | 37.9 | 28.3 µM | 8.18 µM |  | 32.3 | 8.33 | 39.5 µM | 18.4 | 15.1 | 2.37 | 17.8 | 33.4 µM |  | 18.4 | 2010 | 20.5 | 15.3 | 28.7 µM | 19.9 | 39.8 µM
